Measurements reported in US7399784B2, “Tocopherol and tocotrienol anti-obesity medicaments” (Children's Hospital & Research Center at Oakland, priority 2002, dated 2008).

How the values were obtained:
leptin = settings: healthy individuals; Ismermann et al. 1999; cited from earlier work
[1] = system: embryonic cell (C3H10T1/2); assay: Adipocyte differentiation of C3H10T1/2 cells induced with insulin plus drugs; type: cell-based; settings: differentiation induced with insulin plus indomethacin, troglitazone or 15-deoxy-delta(12,14)-prostaglandin-J2
Excerpt: For these example, differentiation was induced in the presence of insulin with drugs, including indomethacin, and troglitazone, one of the anti-diabetes drugs of the thiazolidinedione family, as well as 15-deoxy-delta (12, 14)-prostaglandin-J2, a putative endogenous ligand for the peroxisome proliferator-activated receptor-gamma. Our results clearly indicate that tocopherols and tocotrienols inhibit adipogenesis.

adipocytes = assay: Weight gain and adipocyte triglyceride accumulation in mice fed a high-fat diet; type: in vivo, BALB/c mice; settings: food admixture 0.1%, 3%, 0.02% or 0.01%
Method: We evaluate weight gain and triglyceride accumulation in adipocytes in mice fed a high-fat diet. Six-week-old BALB/c mice are fed powdered chow with various tocopherols and tocotrienols and mixtures thereof, as 0.1%, 3%, 0.02%, or 0.01% food admixtures. For histological analysis of adipose and hepatic tissues and determination of adipocyte size, adipose tissue is removed from each animal and fixed in 10% formaldehyde/PBS and maintained at 4° C. until use. Fixed specimens are dehydrated, embedded in tissue-freezing medium and frozen in dry ice and acetone. White adipose tissue is cut into 10-μm sections, and the sections mounted on silanized slides. The adipose tissue is stained with hematoxylin and eosin (H&E). Mature white adipocytes are identified by their characteristic […] appearance. Total adipocyte areas are traced manually and analyzed with Win ROOF software (Mitani Co. Ltd., Chiba, Japan). White adipocyte areas are measured in 400 or more cells per mouse in each group according to methods previously described (Kubota, N. et al.1999, Mol. Cell. 4:597-609).

insulin-secreting cells = settings: Sjoholm et al. 2000; cited from earlier work
[2] = treatment of diabetes; Malinowski et al. 2000; cited from earlier work

Question: With `Cc1c(C)c2c(c(C)c1O)CC[C@@](C)(CCC[C@H](C)CCC[C@H](C)CCCC(C)C)O2` [alpa-T, alpha-tocopherol, reference compound] as the compound, how does the leptin expression (leptin) read?
Answer: The leptin expression was “induces leptin expression”.

Question: What about the “anti-adipogenesis activity (inhibition of differentiation to adipocytes)” value [1] of the same compound?
Answer: The value was “much less effective”.

Question: What about the intracellular triglyceride accumulation [1] of the same compound?
Answer: Its intracellular triglyceride accumulation is “much less effective”.

Question: With `Cc1cc(O)cc2c1O[C@](C)(CCC[C@H](C)CCC[C@H](C)CCCC(C)C)CC2` [delta-T, delta-tocopherol] as the compound, how does the “triglyceride accumulation in adipocytes” value (adipocytes) read?
Answer: The value was “reduced triglyceride accumulation in adipocytes”.

Question: And the weight gain (adipocytes)?
Answer: Its weight gain is “reduced weight gain”.

Question: And the “anti-adipogenesis activity (inhibition of differentiation to adipocytes)” value [1]?
Answer: The value was “dose-dependent anti-adipogenesis activity”.

Question: And the intracellular triglyceride accumulation [1]?
Answer: The intracellular triglyceride accumulation was “decrease intracellular triglyceride accumulation”.

Question: For `CC(C)=CCC/C(C)=C/CC/C(C)=C/CC[C@]1(C)CCc2cc(O)cc(C)c2O1` [delta-tocotrienol], which “triglyceride accumulation in adipocytes” value (adipocytes) is on record?
Answer: The value was “reduced triglyceride accumulation in adipocytes”.

Question: What about the weight gain (adipocytes) of the same compound?
Answer: The weight gain was “reduced weight gain”.

Question: What about the “anti-adipogenesis activity (inhibition of differentiation to adipocytes)” value [1] of the same compound?
Answer: The value was “dose-dependent anti-adipogenesis activity”.

Question: And the intracellular triglyceride accumulation [1]?
Answer: The intracellular triglyceride accumulation was “decrease intracellular triglyceride accumulation”.

Question: With `Cc1c(O)cc2c(c1C)O[C@](C)(CCC[C@H](C)CCC[C@H](C)CCCC(C)C)CC2` [gamma-T, gamma-tocopherol] as the compound, how does the “protection against functional inhibition by nitric oxide” value (insulin-secreting cells) read?
Answer: Its value is “partially protects”.

Question: What about the “triglyceride accumulation in adipocytes” value (adipocytes) of the same compound?
Answer: Its value is “reduced triglyceride accumulation in adipocytes”.

Question: And the weight gain (adipocytes)?
Answer: Its weight gain is “reduced weight gain”.

Question: What about the “anti-adipogenesis activity (inhibition of differentiation to adipocytes)” value [1] of the same compound?
Answer: Its value is “dose-dependent anti-adipogenesis activity”.

Question: What about the intracellular triglyceride accumulation [1] of the same compound?
Answer: Its intracellular triglyceride accumulation is “decrease intracellular triglyceride accumulation”.

Question: What does the source list for `CC(C)=CCC/C(C)=C/CC/C(C)=C/CC[C@]1(C)CCc2cc(O)c(C)c(C)c2O1` [gamma-tocotrienol]?
Answer: triglyceride accumulation in adipocytes (adipocytes): reduced triglyceride accumulation in adipocytes; weight gain (adipocytes): reduced weight gain; anti-adipogenesis activity (inhibition of differentiation to adipocytes) [1]: dose-dependent anti-adipogenesis activity; intracellular triglyceride accumulation [1]: decrease intracellular triglyceride accumulation

Question: Which “weight gain and obesity” value [2] does the source give for `CCc1ccc(CCOc2ccc(CC3SC(=O)NC3=O)cc2)nc1` (stereo not drawn) [proglitazone] here?
Answer: The value was “commonly leads to weight gain and obesity”.

Question: With `CN(CCOc1ccc(CC2SC(=O)NC2=O)cc1)c1ccccn1` (stereo not drawn) [rosiglitazone] as the compound, how does the “weight gain and obesity” value [2] read?
Answer: Its value is “commonly leads to weight gain and obesity”.

Question: For `Cc1c(C)c2c(c(C)c1O)CCC(C)(COc1ccc(CC3SC(=O)NC3=O)cc1)O2` (stereo not drawn) [troglitazone], which “weight gain and obesity” value [2] is on record?
Answer: Its value is “commonly leads to weight gain and obesity”.

Question: What does the source list for alpha-tocotrienol?
Answer: triglyceride accumulation in adipocytes (adipocytes): reduced triglyceride accumulation in adipocytes; weight gain (adipocytes): reduced weight gain; anti-adipogenesis activity (inhibition of differentiation to adipocytes) [1]: dose-dependent anti-adipogenesis activity; intracellular triglyceride accumulation [1]: decrease intracellular triglyceride accumulation
